test system: TK.6 lymphoblasts; test: TK.6 micronucleus assay; type: cell-based; settings: 24 hr
Protocol: The safety/toxicology profiles of a compound or salt of the present disclosure was evaluated via a series of in vitro genotoxicity assays, including the SOS-chromotest to determine bacterial genotoxicity, and the TK.6 micronucleus assay to determine chromosomal damage and forward mutations. Standard reactive oxygen species (ROS) and caspase 3/7 assay were conducted to determine general cellular toxicity. Moreover, a series of sensitization tests were conducted to predict any potential skin sensitivity. These include the direct peptide reactivity assay to evaluate haptenization, the KeratinoSens reporter assay to determine potential sensitivity via the activation of a cytoprotective pathway, and an immunological assay using human immature monocyte-derived dendritic cells to evaluate any potential immunogenicity.
TK.6 lymphoblasts are a well-studied cell line commonly used for gene mutation analyses. They are heterozygous for the thymidine kinase gene (TK) and enable the detection of forward mutations and chromosomal damage, which manifests as micronuclei and are detectable via flow cytometry.
TK.6 cells were dosed with the example compounds or a vehicle control (0.1% v/v DMSO) and cultured with or without S9 metabolic activation for 24 hr. […] Methyl methanesulfonate, a known genotoxic, alkylating agent was used as a positive control for micronuclei detection.
The micronucleus assay was also performed to determine if the compounds are genotoxic by evaluating the presence of micronuclei. […] In combination. […] I-17 elicited genotoxicity at >3.125 μg/mL.

Structure (SMILES) | concentration at which genotoxicity was elicited in TK.6 micronuclei assay [ng/mL]
C=CCc1cc(/C=C2\C(=O)NC(=S)N(c3ccc(OC)cc3)C2=O)cc(OC)c1O [I-17] | > 3125

test system: human hair follicle dermal papilla cells (hFDPC); test: Human follicle dermal papilla cells (hFDPC) proliferation assay; type: cell-based; settings: hFDPCs supplemented with BIO, BMP-2 and FGFβ
Source text: In Table 8, A represents less than 20% of increased proliferation of hFDPCs, B represents 20-40%, and C represents larger than 40% of increased proliferation of hFDPCs.

Structure (SMILES) | Percent Increase Proliferation of hFDPCs (%)
C=CCc1cc(/C=C2\C(=O)NC(=S)N(c3ccc(OC)cc3)C2=O)cc(OC)c1O [I-17] | C (C represents larger than 40% of increased proliferation of hFDPCs)
COc1ccc(S(=O)(=O)N2CCC(C(=O)N3CCN(Cc4ccc5c(c4)OCO5)CC3)CC2)cc1C [VI-3, Methanone, [4-(1,3-benzodioxol-5-ylmethyl)-1-piperazinyl][1-[(4-methoxy-3-methylphenyl)sulfonyl]-4-piperidinyl]-] | B (B represents 20-40%)
Cc1ccc(S(=O)(=O)N2CCC(C(=O)N3CCN(Cc4nc5ccccc5s4)CC3)CC2)cc1 [VI-4, Methanone, [4-(2-benzothiazolylmethyl)-1-piperazinyl][1-[(4-methylphenyl)sulfonyl]-4-piperidinyl]-] | A (A represents less than 20% of increased proliferation of hFDPCs)
COc1ccc(S(=O)(=O)Nc2ccc(S(=O)(=O)NCCc3ccccc3)cc2)cc1 [VI-5, Benzenesulfonamide, 4-methoxy-N-[4-[[(2-phenylethyl)amino]sulfonyl]phenyl]-] | A (A represents less than 20% of increased proliferation of hFDPCs)
O=C(O)CC1SC(NN=Cc2ccc(OS(=O)(=O)c3ccc([N+](=O)[O-])cc3)cc2)=NC1=O (stereo not drawn) [VI-6, 5-Thiazoleacetic acid, 4,5-dihydro-2-[2-[[4-[[(4-nitrophenyl)sulfonyl]oxy]phenyl]methylene] hydrazinyl]-4-oxo-] | A (A represents less than 20% of increased proliferation of hFDPCs)
CCS(=O)(=O)n1[nH]c(-c2ccco2)nc1=N [VII-2, 1H-1,2,4-Triazol-5-amine, 1-(ethylsulfonyl)-3-(2-furanyl)-] | A (A represents less than 20% of increased proliferation of hFDPCs)
CCn1c(SCC(=O)c2ccc(S(=O)(=O)N3CCCC3)cc2)nnc1-c1ccco1 [VII-4, Ethanone, 2-[[4-ethyl-5-(2-furanyl)-4H-1,2,4-triazol-3-yl]thio]-1-[4-(1-pyrrolidinylsulfonyl)phenyl]-] | A (A represents less than 20% of increased proliferation of hFDPCs)
NC(=O)c1ccc(NC(=O)CCCc2nc(-c3ccccc3)no2)cc1 [VII-5, 1,2,4-Oxadiazole-5-butanamide, N-[4-(aminocarbonyl)phenyl]-3-phenyl-] | A (A represents less than 20% of increased proliferation of hFDPCs)
CCOC(=O)c1cnn(-c2ccc(C(=O)Nc3ccc(C(=O)NCC(=O)OC)cc3)cc2)c1C [VII-6, 1H-Pyrazole-4-carboxylic acid, 1-[4-[[[4-[[(2-methoxy-2-oxoethyl)amino]carbonyl]phenyl]amino]carbonyl]phenyl]-5-methyl-, ethyl ester] | A (A represents less than 20% of increased proliferation of hFDPCs)
CCOC(=O)c1cnn(-c2ccc(C(=O)Nc3ccc(S(=O)(=O)CC)cc3)cc2)c1C [VII-7, 1H-Pyrazole-4-carboxylic acid, 1-[4-[[[4-(ethylsulfonyl)phenyl]amino]carbonyl]phenyl]-5-methyl-, ethyl ester] | B (B represents 20-40%)
CCOC(=O)c1cnn(-c2cccc(NC(=O)C3CCN(c4ncccn4)CC3)c2)c1C [VII-8, 1H-Pyrazole-4-carboxylic acid, 5-methyl-1-[3-[[[1-(2-pyrimidinyl)-4-piperidinyl]carbonyl]amino]phenyl]-, ethyl ester] | A (A represents less than 20% of increased proliferation of hFDPCs)
NC1=NC2(CCCCCC2)n2c(nc3ccccc32)N1 [VII-9, Spiro[cycloheptane-1, 4′(1′H)-[1,3,5]triazino[1,2-a]benzimidazol]-2′-amine] | B (B represents 20-40%)
O=C1CNCc2[nH]c3ccccc3c2N1c1ccccc1 [VII-10, 1,4-Diazepino[6,5-b] indol-2(1H)-one, 3,4,5,6-tetrahydro-1-phenyl-] | B (B represents 20-40%)
NC1=NC2(CCCCC2)n2c(nc3ccccc32)N1 [VII-11, Spiro[cyclohexane-1, 4′(3′H)-[1,3,5]triazino[1,2-a]benzimidazol]-2′-amine] | A (A represents less than 20% of increased proliferation of hFDPCs)
Cc1cc(C)cc(N2Cc3ccccc3C2)c1 [VII-12, 1H-Isoindole, 2-(3,5-dimethylphenyl)-2,3-dihydro-] | A (A represents less than 20% of increased proliferation of hFDPCs)
Oc1c2c(c(O)n1C1CCCCC1)CC=CC2 [VII-13, 1H-Isoindole-1,3(2H)-dione, 2-cyclohexyl-3a,4,7,7a-tetrahydro-] | A (A represents less than 20% of increased proliferation of hFDPCs)
Cc1cccc(CN2CCN(c3ncccn3)CC2)c1 [VII-15, Pyrimidine, 2-[4-[(3-methylphenyl)methyl]-1-piperazinyl]-] | A (A represents less than 20% of increased proliferation of hFDPCs)
COc1ccc(N(CC(=O)N2CCN(c3ccccc3OC)CC2)S(=O)(=O)c2ccccc2)cc1 [VII-16, Benzenesulfonamide, N-(4-methoxyphenyl)-N-[2-[4-(2-methoxyphenyl)-1-piperazinyl]-2-oxoethyl]-] | A (A represents less than 20% of increased proliferation of hFDPCs)
O=C1Nc2ccccc2SC1CC(=O)N1CCN(C(c2ccccc2)c2ccccc2)CC1 (stereo not drawn) [VII-17, 2H-1,4-Benzothiazin-3(4H)-one, 2-[2-[4-(diphenylmethyl)-1-piperazinyl]-2-oxoethyl]-] | A (A represents less than 20% of increased proliferation of hFDPCs)
O=C(c1cccs1)N1CCN(C(=O)c2cccc3ccccc23)CC1 [VII-18, Piperazine, 1-(1-naphthalenylcarbonyl)-4-(2-thienylcarbonyl)-(9CI)] | A (A represents less than 20% of increased proliferation of hFDPCs)
CC12C=CC(=O)C=C1CCC1C2C(O)CC2(C)C1CC[C@]2(O)C(=O)COC(=O)CCC(=O)O (stereo partly drawn) [VII-19, Pregna-1,4-diene-3, 20-dione, 21-(3-carboxy-1-oxopropoxy)-11,17-dihydroxy-, (11β)-] | A (A represents less than 20% of increased proliferation of hFDPCs)
CCN(Cc1ccccc1)C(=O)c1ccc(C(=O)N(CC)Cc2ccccc2)cc1 [VII-20, 1,4-Benzenedicarboxamide, N^1,N^4-diethyl-N^1, N^4-bis(phenylmethyl)-] | A (A represents less than 20% of increased proliferation of hFDPCs)
Cc1ccc(-c2nn(CC(=O)NCCc3c(C)n(C)c4ccccc34)c(=O)c3ccccc23)cc1S(=O)(=O)N1CCOCC1 [VII-21, 2(1H)-Phthalazineacetamide, N-[2-(1,2-dimethyl-1H-indol-3-yl)ethyl]-4-[4-methyl-3-(4-morpholinylsulfonyl)phenyl]-1-oxo-] | A (A represents less than 20% of increased proliferation of hFDPCs)
COc1ccc(CC(=O)Nc2sc3c(c2C(=O)Nc2cccc([N+](=O)[O-])c2)CCC(C)C3)cc1 (stereo not drawn) [VII-22, Benzo[b]thiophene-3-carboxamide, 4,5,6,7-tetrahydro-2-[[2-(4-methoxyphenyl)acetyl]amino]-6-methyl-N-(3-nitrophenyl)-] | A (A represents less than 20% of increased proliferation of hFDPCs)
COC(=O)c1cccc(NC(=O)c2cc(NC(=O)c3ccccc3)cc(C(=O)Nc3cccc(C(=O)OC)c3)c2)c1 [VII-23, Benzoic acid, 3,3′-[[5-(benzoylamino)-1,3-phenylene]bis(carbonylimino)] bis-, dimethyl ester (9CI)] | B (B represents 20-40%)
Cc1ccc(-c2nc3ncccc3o2)cc1NC(=S)NC(=O)c1ccc(C(C)(C)C)cc1 [VII-24, Benzamide, 4-(1,1-dimethylethyl)-N-[[(2-methyl-5-oxazolo[4,5-b]pyridin-2-ylphenyl)amino]thioxomethyl]-] | A (A represents less than 20% of increased proliferation of hFDPCs)
CC1(c2ccccc2)NC(=O)N(Cc2cc(=O)n3ccccc3n2)C1=O (stereo not drawn) [VII-25, 2,4-Imidazolidinedione, 5-methyl-3-[(4-oxo-4H-pyrido[1,2-a]pyrimidin-2-yl)methyl]-5-phenyl-] | B (B represents 20-40%)
Cc1ccccc1Cn1nc(C)c(NC(=O)c2csc3ccccc23)c1C [VII-26, Benzo[b]thiophene-3-carboxamide, N-[3,5-dimethyl-1-[(2-methylphenyl)methyl]-1H-pyrazol-4-yl]-] | A (A represents less than 20% of increased proliferation of hFDPCs)

test system: HepG2 cells; test: Caspase 3/7 activity in HepG2 cells; type: cell-based; settings: HepG2, >2-log concentration range, versus % v/v-matched DMSO
Protocol: (§1) Cells were treated with either the example compounds or vehicle control containing correspondingly % v/v-matched amounts of DMSO spanning a >2-log concentration range. Data represents mean±s.d. and representative of at least 2 experimental replicates.
as §1, with “HepG2 cells are an immortalized liver cell line commonly used to study apoptosis induced by small molecules. Cells” for “Cells”

Structure (SMILES) | Normalized caspase 3/7 activity
C=CCc1cc(/C=C2\C(=O)NC(=S)N(c3ccc(OC)cc3)C2=O)cc(OC)c1O [I-17] | significant caspase-3/7 activation at the highest concentration
